Reference: publication PMC3914206

Experiments:
Assay type in all cases: binding
Set-up in all cases: KINOMEscan: ABL1(F317L)-phosphorylated / KINOMEscan: ABL1(H396P)-nonphosphorylated / KINOMEscan: ABL1(H396P)-phosphorylated / KINOMEscan: ABL1(M351T)-phosphorylated / KINOMEscan: ABL1(T315I)-phosphorylated / KINOMEscan: ABL1-nonphosphorylated / KINOMEscan: ABL1-phosphorylated / KINOMEscan: ACVR2A / KINOMEscan: ACVR2B / KINOMEscan: ADCK3 / KINOMEscan: ADCK4 / KINOMEscan: AKT1 / KINOMEscan: AKT3 / KINOMEscan: ALK / KINOMEscan: ARK5 / KINOMEscan: AURKA / KINOMEscan: AURKC / KINOMEscan: BIKE / KINOMEscan: BMPR1A / KINOMEscan: BMPR1B / KINOMEscan: BMX / KINOMEscan: BRK / KINOMEscan: BRSK1 / KINOMEscan: BRSK2 / KINOMEscan: CAMK1 / KINOMEscan: CAMK1D / KINOMEscan: CAMK1G / KINOMEscan: CAMK2A / KINOMEscan: CAMK2B / KINOMEscan: AAK1 / KINOMEscan: CAMK2D / KINOMEscan: CAMK2G / KINOMEscan: ABL1(F317I)-nonphosphorylated / KINOMEscan: ABL1(F317I)-phosphorylated / KINOMEscan: ABL1(F317L)-nonphosphorylated: unit: % Ctrl
panel of 442 kinases [1] = biological target: T1, panel of 442 kinases (Homo sapiens, UniProt O00238); details: Compound Concentration 10 µM
T1 construct: purchased KINOMEscan
Source text: (§1) We assessed the selectivity of members of this scaffold using the KINOMEscan methodology across a near comprehensive panel of 442 kinases [[18,27]].

panel of 442 kinases [2] = biological target: T2, panel of 442 kinases (Homo sapiens, UniProt O75716); details: kinase STK16; compound concentration 10 µM
T2 construct: purchased KINOMEscan
Source text: as §1

panel of 442 kinases [3] = biological target: T3, panel of 442 kinases (Homo sapiens, UniProt P10721, D816V); details: Compound Concentration 10 µM
T3 construct: purchased KINOMEscan
Source text: as §1

panel of 442 kinases [4] = biological target: T4, panel of 442 kinases (Homo sapiens, UniProt Q04912); details: Compound Concentration 10 µM
T4 construct: purchased KINOMEscan
Source text: as §1

T3 sequence (P10721 26-976 D816V): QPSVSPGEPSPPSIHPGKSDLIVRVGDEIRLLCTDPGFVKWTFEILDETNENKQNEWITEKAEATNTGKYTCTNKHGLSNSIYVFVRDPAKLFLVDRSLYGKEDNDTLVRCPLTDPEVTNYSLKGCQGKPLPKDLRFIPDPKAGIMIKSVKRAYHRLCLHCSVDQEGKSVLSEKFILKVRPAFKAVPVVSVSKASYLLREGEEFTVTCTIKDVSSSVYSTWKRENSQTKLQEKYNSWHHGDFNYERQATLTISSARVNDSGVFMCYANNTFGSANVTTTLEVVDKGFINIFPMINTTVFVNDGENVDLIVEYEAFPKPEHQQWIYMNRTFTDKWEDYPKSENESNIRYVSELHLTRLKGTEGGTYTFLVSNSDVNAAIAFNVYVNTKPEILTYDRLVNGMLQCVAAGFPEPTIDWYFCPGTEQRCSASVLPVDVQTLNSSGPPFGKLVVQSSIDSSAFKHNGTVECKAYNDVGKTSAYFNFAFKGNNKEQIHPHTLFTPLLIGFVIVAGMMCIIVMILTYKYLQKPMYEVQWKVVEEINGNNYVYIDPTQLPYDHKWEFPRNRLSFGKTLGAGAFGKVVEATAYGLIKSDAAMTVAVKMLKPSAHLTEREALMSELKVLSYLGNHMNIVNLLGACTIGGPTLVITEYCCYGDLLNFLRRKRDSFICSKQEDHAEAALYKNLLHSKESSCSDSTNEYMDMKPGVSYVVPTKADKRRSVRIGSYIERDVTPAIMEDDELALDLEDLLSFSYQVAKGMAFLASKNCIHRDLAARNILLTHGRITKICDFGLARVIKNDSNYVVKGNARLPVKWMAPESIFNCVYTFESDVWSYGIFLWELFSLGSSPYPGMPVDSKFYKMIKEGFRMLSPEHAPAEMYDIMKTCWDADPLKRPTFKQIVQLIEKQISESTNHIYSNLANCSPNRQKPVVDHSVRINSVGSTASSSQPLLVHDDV
T2 sequence (O75716 whole entry): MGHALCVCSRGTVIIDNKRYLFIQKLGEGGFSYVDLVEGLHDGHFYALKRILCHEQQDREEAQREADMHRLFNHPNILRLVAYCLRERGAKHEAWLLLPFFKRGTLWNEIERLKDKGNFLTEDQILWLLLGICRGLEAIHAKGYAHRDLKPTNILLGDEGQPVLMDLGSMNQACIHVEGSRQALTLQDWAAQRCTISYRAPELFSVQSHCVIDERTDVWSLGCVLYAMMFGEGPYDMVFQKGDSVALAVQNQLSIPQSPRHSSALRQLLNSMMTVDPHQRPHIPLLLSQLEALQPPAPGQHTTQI
T1 sequence (O00238 14-502): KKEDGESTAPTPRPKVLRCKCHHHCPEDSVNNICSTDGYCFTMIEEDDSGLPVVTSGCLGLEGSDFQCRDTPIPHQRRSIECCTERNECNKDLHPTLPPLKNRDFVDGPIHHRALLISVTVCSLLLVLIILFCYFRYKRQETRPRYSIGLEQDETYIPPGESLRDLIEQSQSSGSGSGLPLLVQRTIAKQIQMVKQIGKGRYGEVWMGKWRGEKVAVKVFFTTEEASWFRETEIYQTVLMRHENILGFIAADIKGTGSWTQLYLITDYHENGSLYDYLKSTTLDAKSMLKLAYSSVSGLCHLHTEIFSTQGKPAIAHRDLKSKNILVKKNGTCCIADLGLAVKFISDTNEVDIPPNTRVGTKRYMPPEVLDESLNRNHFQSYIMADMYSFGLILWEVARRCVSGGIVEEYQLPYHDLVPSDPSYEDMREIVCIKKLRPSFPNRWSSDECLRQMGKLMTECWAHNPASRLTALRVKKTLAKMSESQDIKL
T4 sequence (Q04912 25-1400): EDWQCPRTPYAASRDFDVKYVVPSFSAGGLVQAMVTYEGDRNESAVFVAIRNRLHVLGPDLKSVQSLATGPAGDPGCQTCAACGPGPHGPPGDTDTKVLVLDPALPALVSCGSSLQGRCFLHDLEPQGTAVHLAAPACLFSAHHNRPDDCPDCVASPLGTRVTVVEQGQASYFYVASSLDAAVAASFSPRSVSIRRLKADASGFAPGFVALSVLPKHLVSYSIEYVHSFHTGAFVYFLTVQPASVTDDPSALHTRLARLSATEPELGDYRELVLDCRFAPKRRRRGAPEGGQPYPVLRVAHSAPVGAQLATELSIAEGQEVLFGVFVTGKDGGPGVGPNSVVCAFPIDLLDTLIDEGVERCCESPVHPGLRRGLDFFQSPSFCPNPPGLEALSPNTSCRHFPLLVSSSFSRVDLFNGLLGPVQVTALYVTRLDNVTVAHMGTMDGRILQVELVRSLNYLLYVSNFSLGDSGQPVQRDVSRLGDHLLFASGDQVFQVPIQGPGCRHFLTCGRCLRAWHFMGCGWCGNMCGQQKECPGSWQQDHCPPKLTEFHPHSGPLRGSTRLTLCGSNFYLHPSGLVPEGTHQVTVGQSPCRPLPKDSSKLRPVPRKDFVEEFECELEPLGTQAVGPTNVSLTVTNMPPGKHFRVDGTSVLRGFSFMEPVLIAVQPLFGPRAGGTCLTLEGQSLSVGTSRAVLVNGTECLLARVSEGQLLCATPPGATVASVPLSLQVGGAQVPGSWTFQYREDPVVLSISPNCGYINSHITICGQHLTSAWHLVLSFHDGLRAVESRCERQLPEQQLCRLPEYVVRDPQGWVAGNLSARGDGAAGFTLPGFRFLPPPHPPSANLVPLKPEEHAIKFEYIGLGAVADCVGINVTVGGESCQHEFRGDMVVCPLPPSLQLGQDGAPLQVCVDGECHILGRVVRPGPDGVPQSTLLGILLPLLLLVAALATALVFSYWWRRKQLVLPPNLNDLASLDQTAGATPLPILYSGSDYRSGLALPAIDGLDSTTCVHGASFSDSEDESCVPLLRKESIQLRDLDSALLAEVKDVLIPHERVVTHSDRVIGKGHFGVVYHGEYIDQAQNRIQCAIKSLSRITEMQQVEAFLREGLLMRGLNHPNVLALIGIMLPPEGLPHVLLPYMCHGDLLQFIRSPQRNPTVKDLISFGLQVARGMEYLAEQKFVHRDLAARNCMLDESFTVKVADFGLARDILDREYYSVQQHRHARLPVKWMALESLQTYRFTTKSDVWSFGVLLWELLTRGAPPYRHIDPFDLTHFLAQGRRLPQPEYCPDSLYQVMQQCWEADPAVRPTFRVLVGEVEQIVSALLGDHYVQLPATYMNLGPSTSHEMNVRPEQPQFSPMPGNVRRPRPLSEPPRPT

Row | SMILES | KINOMEscan: BMPR1B (panel of 442 kinases [1]) | % Ctrl, STK16 (panel of 442 kinases [2]) [% Ctrl] | KINOMEscan: KIT(D816V) (panel of 442 kinases [3]) | KINOMEscan: MST1R (panel of 442 kinases [4])
1 | COc1cc(C(=O)N2CCC(N3CCN(C)CC3)CC2)ccc1Nc1ncc2c(n1)N1CCc3cccc(c31)C(=O)N2C [Compound 24] | 97 | 50 | – | –
2 | CCOc1cc(C(=O)N2CCC(N3CCN(C)CC3)CC2)ccc1Nc1ncc2c(n1)N(C1CCCC1)c1ccccc1C(=O)N2C [Compound 26] | 100 | 99 | 96 | 100
3 | COc1cc(C(=O)N2CCC(N3CCN(C)CC3)CC2)ccc1Nc1ncc2c(n1)N(C1CCCC1)c1ccccc1C(=O)N2C [Compound 25, 11-cyclopentyl-2-((2-methoxy-4-(4-(4-methylpiperazin-1-yl)piperidine-1-carbonyl)phenyl)amino)-5-methyl-5H-benzo[e]pyrimido[5,4-b][1,4]diazepin-6(11H)-one] | 98 | 75 | 92 | 100
4 | COc1cc(C(=O)N2CCC(N3CCN(C)CC3)CC2)ccc1Nc1ncc2c(n1)N(C)c1ccccc1C(=O)N2C [15 (LRRK2-IN-1)] | 76 | 62 | 72 | 98
